The text below walks through data of a melting point compilation (Tetko et al.; mined from patent text by program, amines drawn as free bases though some values may be those of a salt).

The melting point is the temperature of the solid-liquid transition. Compound `COCCc1cccc2oc(C(=O)Nc3ccc(-c4ccc(S(=O)(=O)NC(C(=O)O)C(C)C)cc4)cc3)c(C)c12` (stereo not given) yielded a melting point of 100 to 110 °C.

`COC(=O)/C(=C/C1CCCCCC1)c1ccc(S(C)(=O)=O)c(C(F)(F)F)c1` showed a melting point of 151 to 156 °C.

On to `Cc1ccccc1Oc1cccc2c1OC(=O)C2`, for which the melting point was 110 to 111 °C.

Take `CC1COCC(C)N1c1cccc([N+](=O)[O-])c1` (stereo not given): the melting point fell in the range of 127 to 128 °C.

For the compound `CS(=O)(=O)Nn1c(=O)[nH]c2cc([N+](=O)[O-])c(NC3CCCC3)cc2c1=O`, the melting point fell in the range of 146 to 155 °C.

`Cc1nc(N2CCN(Cc3ccc(F)cc3)C2=O)sc1C(N)=O` had a melting point of 201 to 203 °C.

Consider `Cc1ccc(C(=O)CCCl)cc1`, for which the melting point was 77.5 to 78.5 °C.

`O=C(O)CCCCOC(c1ccccc1)(c1ccccc1)c1ccccc1`: the melting point was in the range of 146 to 148 °C.

Consider `Cc1ccc(N(Cc2cccnc2)S(C)(=O)=O)cc1`, for which the melting point is 143 to 146 °C.

Regarding `CC(=O)OCC1OC(n2ccc3c(F)cccc32)C(OC(C)=O)C(OC(C)=O)C1OC(C)=O` (stereo not given), the melting point fell in the range of 132 to 135 °C.

In turn, `O=C(O)CNC(=O)C(CSC(=O)c1ccccc1)SC(=O)c1ccccc1` (stereo not given) gave a melting point of 160 to 163 °C.

Turning to `Cc1cc(-c2ccc(-c3ccco3)cc2)n(-c2ccc(S(N)(=O)=O)cc2)c1`, the melting point lay within 153 to 155 °C.

As to `NC(=O)CNC(=O)c1ccnc(-c2cccc3cc(COc4cccc(C(F)(F)F)c4)sc23)c1`, the melting point fell in the range of 185 to 186 °C.

In the case of `CCCN1C(=O)C2(COc3cc4c(cc32)OCO4)c2ccccc21` (stereo not given), the melting point lay within 158 to 160 °C.

`CC(CCC(=O)OCc1ccccc1)C1CC=C2C3=C(CCC21C)C1(C)CCC(O)C(C)(C)C1CC3` (stereo not given) displayed a melting point of 118 to 119 °C.

In turn, `FC(F)(F)c1cc(/C=C/c2ncon2)ccc1Cl` had a melting point of 85 to 87 °C.

`CC(C)(CF)C(O)C(c1ccc(Cl)cc1Cl)n1cncn1` (stereo not given): the melting point lay within 98 to 100 °C.

In turn, `COc1cc2ccsc2c(Cl)c1Cl` yielded a melting point of 103 to 104 °C.

Turning to `CC(C)(C)NS(=O)(=O)c1ccccc1`, the melting point is 77 to 78 °C.

`Nc1ncnc2c1ncn2Cc1nc2cccc(F)c2c(=O)n1-c1ccccc1Cl` yielded a melting point of 159 to 172 °C.

Regarding `COC(=O)c1cnc(N)nc1OC`, the melting point amounted to 221 °C.

The compound `CCCCCCCCCCCCNC(N)=O` came in with a melting point of 105 to 107 °C.

As for `CC(=O)OCC1OC(OC(C)=O)C(O)C(OC(C)=O)C1OC(C)=O` (stereo not given), the melting point fell in the range of 163 to 165 °C.

Take `Cn1nc(Oc2ccc(N)c(N)c2)cc1C(F)(F)F`: the melting point was in the range of 109 to 111 °C.

The compound `CNC(=O)C(CC(O)CO)N(CCN(CCN(CCN(CC(=O)O)C(CC(O)CO)C(=O)NC)CC(=O)O)CC(=O)O)CC(=O)O` (stereo not given) gave a melting point of 86 to 92 °C.

Compound `CCCOc1ccn2nc(-c3ccccc3)c(-c3ccc(=O)n(C(C)C)n3)c2c1` returned a melting point of 162 °C.

As for `CC#CCOc1ccc(S(=O)(=O)C2(C(=O)O)CCOCC2)cc1`, the melting point was found to be 197 °C.

In the case of `Nc1c(Cl)ncnc1NCc1ccc(CO)o1`, the melting point was determined as 137 °C.

The compound `COc1cccc(C(N)=O)c1N` had a melting point of 140 to 141 °C.

In turn, `CC1(C)CC(NC(=O)C(O)c2ccccc2)c2cc(C#N)ccc2O1` (stereo not given) yielded a melting point of 120 to 121 °C.

`COc1ccc2c(c1)c(-c1ccccc1)nc(=S)n2CC1CC1`: the melting point is 180 to 181 °C.

As to `CC1(C(=O)Cn2cncn2)CC1`, the melting point amounted to 58 °C.

`CCc1cn2nc(C)ccc2n1`: the melting point is 53 to 55 °C.

`Cc1nn(-c2ccc(C(F)(F)F)cn2)cc1COc1ccc(CCC(=O)O)cc1` had a melting point of 195 to 196 °C.

`CN1CCc2c(c(P(=O)(O)O)cc3[nH]c(=O)c(=O)[nH]c23)C1` displayed a melting point above 325 °C.

The compound `Cn1c(N2CCOC(c3nc(-c4ccccc4)no3)C2)nc(-c2ccncn2)cc1=O` (stereo not given) gave a melting point of 167 °C.

`COC1=NC(C)=C(C(=O)OC(C)C)C(c2cccc([N+](=O)[O-])c2)N1C(=O)N(C)Cc1ccccc1` (stereo not given) displayed a melting point of 145 to 146 °C.

Turning to `CCCn1nc2c(N)nc3ccccc3c2c1CCNC(=O)Nc1ccc(F)cc1`, the melting point was in the range of 201 to 202 °C.

With `Cc1cc(-n2ccc(CCc3ccccc3)cc2=O)sc1C(=O)NCc1ccccc1`, the melting point fell in the range of 145 to 146 °C.

`CC(C)c1ccc(-c2nsc(-c3cccc(C(=O)O)c3)n2)cc1` registered a melting point of 166 to 168 °C.

On to `COc1ccc(CC2(C(F)F)NC(=O)NC2=O)cc1` (stereo not given), for which the melting point was determined as 164 °C.

As for `CC(C)n1cnc2nc(-c3ccc(Cl)cc3)nn2c1=S`, the melting point fell in the range of 230 to 232 °C.

Compound `O=C(O)c1cccc(Br)c1Nc1ccccc1Br` came in with a melting point of 181 to 182 °C.

`COc1ccc2cc3c(cc2c1)C(=O)OC3=O` returned a melting point of 238 to 240 °C.

Turning to `COC(=O)C1=CC(C(=O)c2ccc(OCc3ccccc3)c(C)c2O)=CN2CCc3c([nH]c4ccccc34)C12C(=O)OC` (stereo not given), the melting point amounted to 216 °C.

For the compound `CON=C(C(=O)OC)c1cc(C)c(C)cc1COc1ccccc1C`, the melting point is 82 to 84 °C.

In the case of `CCOC(=O)C(C)C(O)(c1ccc(OC)cc1)c1ccc(OC)cc1` (stereo not given), the melting point fell in the range of 67 to 69 °C.

`CC1(C)Oc2ccc(C#N)cc2C(Oc2ccc(O)nn2)C1O` (stereo not given) gave a melting point of 232 to 233 °C.

Compound `COCCNc1ccc(N2CCOC2=O)cc1[N+](=O)[O-]` had a melting point of 148 °C.

Compound `Fc1ccc(-c2n[nH]cc2-c2ccnc(NC3CC3)n2)cc1` came in with a melting point of 203 to 204 °C.

`O=C(NCc1ccccc1)OCc1noc(-c2ccc(CN3CCCCCC3)s2)n1` came in with a melting point of 129 to 130 °C.

For `CCN(CCCCc1coc2ccccc12)C[C@H]1COc2ccc3nc(C)ccc3c2O1`, the melting point was in the range of 87 to 92 °C.

`Cc1ccc(S(=O)(=O)OC2=CC3COC(O3)C2=O)cc1` (stereo not given) returned a melting point of 81 to 86 °C.

Compound `CCCCCCCCC(=O)NCCc1ccc(O)cc1` showed a melting point of 65.9 to 66.7 °C.

For `CC(O)c1cc(NC(=O)OC(C)(C)C)ccc1NC(=O)OC(C)(C)C` (stereo not given), the melting point worked out at 189 °C.

For the compound `COC(=O)Nc1cn2nc(OCc3cc(OC)c(OC)c(OC)c3)ccc2n1`, the melting point lay in the range of 213 to 215 °C.

With `CC(C)Cc1nc2ccc(C(N)=O)cc2c(-c2ccccc2)c1CN`, the melting point was 128 to 129 °C.

Compound `COc1ccc2ncc(CO)c(O)c2c1` displayed a melting point of 327 to 334 °C.

Consider `O=C(O)C1c2ccccc2OCc2ncccc21` (stereo not given), for which the melting point was 139 to 140 °C.

Turning to `COC(=O)c1cc(C(=O)c2ncc3ccc(C(=O)OC(C)(C)C)cn23)ccc1[N+](=O)[O-]`, the melting point is 170 °C.

With `Cc1sc2nc3cccc(C)c3c(=O)n2c1C`, the melting point fell in the range of 278 to 280 °C.

`CCOC(=O)c1cn(Cc2ccccc2)nc1OCc1cccc(OCc2nc(-c3ccco3)oc2C)c1` had a melting point of 92 to 93 °C.

In turn, `COc1ccc(C(Sc2ccccc2N)C(O)C(=O)O)cc1` (stereo not given) gave a melting point of 167 to 168 °C.

For the compound `CCCC(=O)C1=C(O)CC(c2cc([N+](=O)[O-])ccc2F)CC1=O` (stereo not given), the melting point is 132 °C.

`FC(F)(F)c1ccc2c(c1)Sc1ccccc1NC2=S` gave a melting point of 236 to 239 °C.

Turning to `CCCc1ccnc2c(=O)[nH]c(-c3cc(S(=O)(=O)N4CCNCC4)ccc3OCC)nc12`, the melting point was 178 to 180 °C.

`CNC(=O)N(O)C(C)c1ccc(F)cc1` (stereo not given) returned a melting point of 130 to 133 °C.

On to `COC(=O)Cn1cnc2c(OCc3ccccc3)ncnc21`, for which the melting point lay in the range of 112 to 115 °C.

In turn, `O=c1[nH]c(CCCOc2cccc(CN3CCCCC3)c2)ncc1Cc1ccnc(O)c1` came in with a melting point of 167 to 169 °C.

`CSC(C)(C)C(=O)N[C@@H](CSSC[C@H](NC(=O)C(C)(C)SC)C(=O)O)C(=O)O` gave a melting point of 128 to 129 °C.

Compound `N#Cc1cnn2c1NCC=C2c1ccc(Cl)c(Cl)c1` came in with a melting point of 254 to 256 °C.

`S=C1Nc2cccnc2Nc2cscc21` had a melting point of 255 to 260 °C.

On to `Cc1ccc(OC(=O)c2cccc(C(=O)Oc3ccc(C)cc3-n3nc4ccccc4n3)c2)c(-n2nc3ccccc3n2)c1`, for which the melting point was in the range of 115 to 118 °C.

`CCCc1nc(S(=O)(=O)Nc2ccccc2Br)nn1-c1ccccc1` gave a melting point of 119 to 121 °C.

For the compound `COC(=O)c1ccnc(NC(=O)C(C)CSC(C)=O)c1` (stereo not given), the melting point fell in the range of 105 to 106 °C.

For the compound `COC(=O)C(Cc1ccc(OS(=O)(=O)C(F)(F)F)cc1)NC(=O)OCc1ccccc1` (stereo not given), the melting point lay within 70 to 73 °C.

Compound `COc1nc(OC)c(C(C)C)c(C(C#N)c2cc(Cl)cc(Cl)c2)n1` (stereo not given) returned a melting point of 135 to 136 °C.

`Cc1cccc(-c2nc(NC3CCCCC3)c3ccccc3n2)n1` gave a melting point of 253 to 255 °C.

`Cc1cc(-c2cc(F)c(F)cc2-c2ccc(S(N)(=O)=O)cc2)ccc1F` showed a melting point of 152 °C.

`CC(=O)c1cncc(OC2SCC(O)C(O)C2O)c1` (stereo not given): the melting point was 209 °C.

For the compound `CC(=O)N[C@H](COC1CCCCO1)C(=O)NCCO[N+](=O)[O-]` (stereo not given in full), the melting point was in the range of 93 to 95 °C.

Turning to `Cc1ccccc1-c1nn(C(C)(C)C(=O)N(C)C)cc1Cl`, the melting point was 134 to 136 °C.

The compound `CCOC(=O)C(C)(Cc1ccc([N+](=O)[O-])cc1)C(=O)OCC` displayed a melting point of 59 to 61 °C.

The compound `O=C(O)CCS(=O)(=O)NCCOCCc1ccccc1` registered a melting point of 80 to 82 °C.

Consider `COc1cc(C(C)=O)ccc1OCCCN1CCC(C(O)(c2ccc(F)cc2)c2ccc(F)cc2)CC1`, for which the melting point was in the range of 142 to 143 °C.

`CC(C)[C@H](NC(=O)OCc1ccccn1)C(=O)N[C@@H](Cc1ccccc1)[C@@H](O)C[C@H](Cc1ccccc1)NC(=O)OCc1cccnc1` returned a melting point of 169 to 171 °C.

Regarding `Cc1cc(C)c2nc3sccn3c(=O)c2c1`, the melting point is 190 to 192 °C.

For `CCOC(=O)CN1CCN(CC(O)COc2cc3c(Nc4cccc(Br)c4)ncnc3cc2OC)CC1` (stereo not given), the melting point lay in the range of 118 to 122 °C.

For `COc1ccc(C(=O)[C@H]2CC=CC[C@H]2C(=O)O)cc1F` (relative stereo), the melting point was 185 to 187 °C.

With `CCCC(=NOCC)C1=C(O)CC(c2cc(C3CCOC3)no2)CC1=O` (stereo not given), the melting point amounted to 85 °C.
